# Assays:
# [1] = test system: Human immunodeficiency virus 1; assay: Antiviral activity against HIV-1 using antiinfectivity assay; type: functional, organism-based
# [2] = molecular target: Human immunodeficiency virus type 1 reverse transcriptase (Human immunodeficiency virus 1, UniProt Q72547); assay: Inhibition of HIV-1 reverse transcriptase.
# [3] = test system: Human immunodeficiency virus type 1 reverse transcriptase (Human immunodeficiency virus 1), Q72547 [K103N]
# [4] = test system: Human immunodeficiency virus type 1 reverse transcriptase (Human immunodeficiency virus 1), Q72547 [UNDEFINED MUTATION]
# [5] = molecular target: Human immunodeficiency virus type 1 reverse transcriptase (Human immunodeficiency virus 1) (UniProt Q72547)
compound,measurement,setting,value
Nc1ccccc1CO[C@H]1C(=O)Nc2ccc(Cl)cc2[C@@]1(C#CC1CC1)C(F)(F)F,IC90,[1],115 nM
same,IC50,[2],1020 nM
O=C1Nc2ccc(Cl)cc2[C@@](C#CC2CC2)(C(F)(F)F)[C@H]1O,IC90,[1],637 nM
same,IC50,[2],> 2000 nM
COC(=O)N[C@H]1C(=O)Nc2ccc(Cl)cc2[C@@]1(C#CC1CC1)C(F)(F)F,IC90,[1],212 nM
same,IC50,[2],> 2000 nM
Nc1ccc(CO[C@H]2C(=O)Nc3ccc(Cl)cc3[C@@]2(C#CC2CC2)C(F)(F)F)cc1F,IC90,[1],26 nM
same,IC50,[2],241 nM
O=C1Nc2ccc(Cl)cc2[C@@](C#CC2CC2)(C(F)(F)F)[C@H]1OCc1ccncc1,IC90,[1],19 nM
same,IC90,[3],50 nM
same,C90,[4],4.83 µM
same,IC90,[5],23 nM
same,IC50,[2],129 nM
Nc1cccc(CO[C@H]2C(=O)Nc3ccc(Cl)cc3[C@@]2(C#CC2CC2)C(F)(F)F)c1,IC90,[1],138 nM
same,IC50,[2],1460 nM
O=C1Nc2ccc(Cl)cc2[C@@](C#CC2CC2)(C(F)(F)F)[C@H]1OCc1cccnc1,IC90,[1],20 nM
same,IC50,[2],438 nM
O=C1Nc2ccc(Cl)cc2[C@@](C#CC2CC2)(C(F)(F)F)[C@H]1OCc1ccccc1F,IC90,[1],140 nM
same,IC50,[2],1300 nM
O=C1Nc2ccc(Cl)cc2[C@@](C#CC2CC2)(C(F)(F)F)[C@H]1OCc1ccccn1,IC90,[1],140 nM
same,IC50,[2],1570 nM
CC(=O)N[C@H]1C(=O)Nc2ccc(Cl)cc2[C@@]1(C#CC1CC1)C(F)(F)F,IC90,[1],917 nM
same,IC50,[2],> 2000 nM
O=C1Nc2ccc(Cl)cc2[C@@](C#CC2CC2)(C(F)(F)F)[C@H]1OCC1CC1,IC90,[1],130 nM
same,IC50,[2],1430 nM
CCCO[C@H]1C(=O)Nc2ccc(Cl)cc2[C@@]1(C#CC1CC1)C(F)(F)F,IC90,[1],62 nM
same,IC50,[2],1050 nM
Nc1ccc(CO[C@H]2C(=O)Nc3ccc(Cl)cc3[C@@]2(C#CC2CC2)C(F)(F)F)cc1,IC90,[1],21 nM
same,IC90,[3],1080 nM
same,C90,[4],3.85 µM
same,IC90,[5],49 nM
same,IC50,[2],412 nM
O=C1Nc2ccc(Cl)cc2[C@@](C#CC2CC2)(C(F)(F)F)[C@H]1OCc1ccc(F)cc1,IC90,[1],112 nM
same,IC50,[2],899 nM
O=C1Nc2ccc(Cl)cc2[C@@](C#CC2CC2)(C(F)(F)F)[C@H]1OCc1ccccc1,IC90,[1],71 nM
same,IC50,[2],440 nM
O=C1Nc2ccc(Cl)cc2[C@@](C#CC2CC2)(C(F)(F)F)[C@H]1OCc1cccc(F)c1,IC90,[1],201 nM
same,IC50,[2],1780 nM
O=C1C[C@](C#CC2CC2)(C(F)(F)F)c2cc(Cl)ccc2N1,IC90,[1],14 nM
same,IC90,[3],1770 nM
same,IC90,[5],992 nM
same,IC50,[2],130 nM
CC(C)=CCO[C@H]1C(=O)Nc2ccc(Cl)cc2[C@@]1(C#CC1CC1)C(F)(F)F,IC90,[1],> 1000 nM
same,IC50,[2],> 2000 nM
O=C1Nc2ccc(Cl)cc2[C@@](C#CC2CC2)(C(F)(F)F)[C@H]1NCc1ccccc1,IC90,[1],218 nM
same,IC50,[2],> 2000 nM

# Source: ChEMBL document CHEMBL1134695, “Synthesis and evaluation of novel quinolinones as HIV-1 reverse transcriptase inhibitors” (Bioorg Med Chem Lett, 2001)
